Patent US10208046B2, “Nitrogen-containing heterocyclic compound” (Takeda Pharmaceutical Company Limited, priority 2014, dated 2019)
pEC50: −log10 of the molar value.

Molecular target: T1, human M1 receptor (hCHRM1) (Homo sapiens, UniProt P11229)
T1 construct: expressed in transfected cells
T1 sequence (P11229 1-460): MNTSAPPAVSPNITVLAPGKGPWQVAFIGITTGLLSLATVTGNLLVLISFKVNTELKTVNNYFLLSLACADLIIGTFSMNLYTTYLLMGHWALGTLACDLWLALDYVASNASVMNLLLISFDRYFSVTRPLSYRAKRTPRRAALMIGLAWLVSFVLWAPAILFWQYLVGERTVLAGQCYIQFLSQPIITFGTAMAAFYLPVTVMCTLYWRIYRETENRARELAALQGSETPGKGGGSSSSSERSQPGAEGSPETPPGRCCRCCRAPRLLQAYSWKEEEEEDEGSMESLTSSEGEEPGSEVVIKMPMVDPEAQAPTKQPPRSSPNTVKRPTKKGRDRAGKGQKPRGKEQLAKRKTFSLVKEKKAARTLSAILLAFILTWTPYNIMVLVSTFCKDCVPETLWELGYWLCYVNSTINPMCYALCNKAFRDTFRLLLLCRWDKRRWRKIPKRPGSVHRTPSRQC
Experiment: Measurement of M1 receptor positive allosteric modulator (M1PAM) activity, calcium fluorescence in CHO-K1 cells;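 as to pEC50: potency reported as IP value in nM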
Type: cell-based
Conditions: for activity (%) at 10 μM: 10 μM test compound with acetylcholine at EC20, 100% = acetylcholine 1 μM, 0% = DMSO; for pEC50: inflection point in the concentration-dependent curve, acetylcholine at EC20 (final 0.6-0.8 nM), CHO-K1 cells expressing human M1, Fluo-4, FLIPRtetra, read-out: IP value
Experimental: Measurement of M1 Receptor Positive Allosteric Modulator (M1PAM) Activity
The activity of a test compound in the presence of acetylcholine at EC20 concentration (final concentration 0.6-0.8 nM), which affords an action corresponding to about 20% of the maximum activity, was measured as PAM activity. The method is as follows. CHO-K1 cells stably expressing a human M1 receptor (hCHRM1) were plated on a 384-well black clear bottom plate (BD Falcon) at 5,000 cells/well, and cultured in an incubator at 37° C., 5% CO2 for 1 day. The medium in the cell plate was removed, and assay buffer A containing calcium indicator (Recording medium (DOJINDO LABORATORIES), 0.1% BSA (Wako Pure Chemical Industries, Ltd.), 2.5 μg/mL Fluo-4 AM (DOJINDO LABORATORIES), 0.08% Pluronic F127 (DOJINDO LABORATORIES), 1.25 mM probenecid (DOJINDO LABORATORIES)) was added at 30 μL/well. The cells were left standing in the incubator at 37° C., 5% CO2 for 30 min, and further left standing at room temperature for 30 min. A test compound prepared by diluting with assay buffer B (HBSS (Invitrogen), 20 mM HEPES (Invitrogen), 0.1% BSA) containing 2.4-3.2 nM acetylcholine was added at 10 μL/well, and the fluorescence was measured by FLIPRtetra (Molecular Devices) for 1 min every 1 second. With the definition that the amount of change in the fluorescence on addition of acetylcholine (final concentration 1 μM) is 100% and that on addition of DMSO instead of a test compound is 0%, the activity (%) of the test compound was calculated, and the inflection point in the concentration-dependent curve of the test compound was calculated as IP values.

Row | activity (%) at 10 μM | pEC50 | SMILES
1 | 91% | 7.77 | CCn1cc(-c2ccc(CN3Cc4ncnc(OCC(C)(F)F)c4C3=O)cc2)cn1 [Example 1, 4-(2,2-difluoropropoxy)-6-(4-(1-ethyl-1H-pyrazol-4-yl)benzyl)-6,7-dihydro-5H-pyrrolo[3,4-d]pyrimidin-5-one]
2 | 108% | 7.51 | CCn1cc(-c2ccc(CN3Cc4ncnc(OCC(F)F)c4C3=O)cc2)cn1 [Example 2, 4-(2,2-difluoroethoxy)-6-(4-(1-ethyl-1H-pyrazol-4-yl)benzyl)-6,7-dihydro-5H-pyrrolo[3,4-d]pyrimidin-5-one]
3 | 103% | 8.05 | CCn1cc(-c2ccc(CN3Cc4ncnc(OCC(C)(F)F)c4C3=O)c(F)c2)cn1 [Example 3, 4-(2,2-difluoropropoxy)-6-(4-(1-ethyl-1H-pyrazol-4-yl)-2-fluorobenzyl)-6,7-dihydro-5H-pyrrolo[3,4-d]pyrimidin-5-one]
4 | 99% | 8.06 | CCn1cc(-c2ccc(CN3Cc4ncnc(OCC(F)F)c4C3=O)c(F)c2)cn1 [Example 4, 4-(2,2-difluoroethoxy)-6-(4-(1-ethyl-1H-pyrazol-4-yl)-2-fluorobenzyl)-6,7-dihydro-5H-pyrrolo[3,4-d]pyrimidin-5-one]
5 | 105% | 7.77 | Cc1nn(C)cc1-c1ccc(CN2Cc3ncnc(OCC(C)(C)F)c3C2=O)cc1 [Example 5, 6-(4-(1,3-dimethyl-1H-pyrazol-4-yl)benzyl)-4-(2-fluoro-2-methylpropoxy)-6,7-dihydro-5H-pyrrolo[3,4-d]pyrimidin-5-one]
6 | 102% | 7.11 | Cn1ccc(-c2ccc(CN3Cc4ncnc(OCC(F)(F)F)c4C3=O)c(F)c2)n1 [Example 9, 6-(2-fluoro-4-(1-methyl-1H-pyrazol-3-yl)benzyl)-4-(2,2,2-trifluoroethoxy)-6,7-dihydro-5H-pyrrolo[3,4-d]pyrimidin-5-one]
7 | 87% | 7.64 | Cc1cc(-c2ccc(CN3Cc4ncnc(OCC(F)(F)F)c4C3=O)cc2)ccn1 [Example 11, 6-(4-(2-methylpyridin-4-yl)benzyl)-4-(2,2,2-trifluoroethoxy)-6,7-dihydro-5H-pyrrolo[3,4-d]pyrimidin-5-one]
8 | 97% | 7.23 | CC(F)(F)COc1nccc2c1C(=O)N(Cc1ccc(-c3cnn(CC(F)(F)F)c3)cc1)C2 [Example 12, 4-(2,2-difluoropropoxy)-2-(4-(1-(2,2,2-trifluoroethyl)-1H-pyrazol-4-yl)benzyl)-1,2-dihydro-3H-pyrrolo[3,4-c]pyridin-3-one]
9 | 100% | 7.26 | CC(F)(F)COc1nccc2c1C(=O)N(Cc1ccc(-c3cnn(CC(F)F)c3)cc1)C2 [Example 13, 2-(4-(1-(2,2-difluoroethyl)-1H-pyrazol-4-yl)benzyl)-4-(2,2-difluoropropoxy)-1,2-dihydro-3H-pyrrolo[3,4-c]pyridin-3-one]
10 | 88% | 7.29 | Cn1cc2cc(-c3ccc(CN4Cc5ccnc(OCC(C)(F)F)c5C4=O)cc3)ccc2n1 [Example 14, 4-(2,2-difluoropropoxy)-2-(4-(2-methyl-2H-indazol-5-yl)benzyl)-1,2-dihydro-3H-pyrrolo[3,4-c]pyridin-3-one]
11 | 100% | 7.80 | Cc1nn(C)cc1-c1cc(F)c(CN2Cc3ncnc(OCC(F)F)c3C2=O)s1 [Example 15, 4-(2,2-difluoroethoxy)-6-((5-(1,3-dimethyl-1H-pyrazol-4-yl)-3-fluoro-2-thienyl)methyl)-6,7-dihydro-5H-pyrrolo[3,4-d]pyrimidin-5-one]
12 | 111% | 7.07 | Cn1cc(-c2ccc(CN3Cc4ccnc(OCCC(F)(F)F)c4C3=O)c(F)c2)nn1 [Example 16, 2-(2-fluoro-4-(1-methyl-1H-1,2,3-triazol-4-yl)benzyl)-4-(3,3,3-trifluoropropoxy)-1,2-dihydro-3H-pyrrolo[3,4-c]pyridin-3-one]
13 | 99% | 7.02 | CC(F)(F)COc1nccc2c1C(=O)N(Cc1ccc(-c3cnn(C4CC4)c3)cc1)C2 [Example 17, 2-(4-(1-cyclopropyl-1H-pyrazol-4-yl)benzyl)-4-(2,2-difluoropropoxy)-1,2-dihydro-3H-pyrrolo[3,4-c]pyridin-3-one]
14 | 102% | 6.55 | Cc1nn(C)cc1-c1ccc(CN2Cc3ccnc(OCC(F)(F)C(F)F)c3C2=O)cc1 [Example 18, 2-(4-(1,3-dimethyl-1H-pyrazol-4-yl)benzyl)-4-(2,2,3,3-tetrafluoropropoxy)-1,2-dihydro-3H-pyrrolo[3,4-c]pyridin-3-one]
15 | 91% | 6.44 | CC(F)(F)COc1nccc2c1C(=O)N(Cc1ccc(-c3ccns3)cc1)C2 [Example 20, 4-(2,2-difluoropropoxy)-2-(4-(1,2-thiazol-5-yl)benzyl)-1,2-dihydro-3H-pyrrolo[3,4-c]pyridin-3-one]
16 | 101% | 6.54 | CC(F)(F)COc1nccc2c1C(=O)N(Cc1ccc(-c3ccoc3)cc1F)C2 [Example 21, 4-(2,2-difluoropropoxy)-2-(2-fluoro-4-(3-furyl)benzyl)-1,2-dihydro-3H-pyrrolo[3,4-c]pyridin-3-one]
17 | 100% | 7.11 | Cc1nn(C)cc1-c1ccc(CN2Cc3ncnc(OCC(F)F)c3C2=O)s1 [Example 34, 4-(2,2-difluoroethoxy)-6-((5-(1,3-dimethyl-1H-pyrazol-4-yl)-2-thienyl)methyl)-6,7-dihydro-5H-pyrrolo[3,4-d]pyrimidin-5-one]
18 | 98% | 7.57 | CCn1cc(-c2ccc(CN3Cc4ncnc(OCC(F)(F)F)c4C3=O)c(F)c2)cn1 [Example 35, 6-(4-(1-ethyl-1H-pyrazol-4-yl)-2-fluorobenzyl)-4-(2,2,2-trifluoroethoxy)-6,7-dihydro-5H-pyrrolo[3,4-d]pyrimidin-5-one]
19 | 99% | 7.66 | Cc1nn(C)cc1-c1ccc(CN2Cc3ncnc(OCC(F)(F)F)c3C2=O)c(F)c1 [Example 36, 6-(4-(1,3-dimethyl-1H-pyrazol-4-yl)-2-fluorobenzyl)-4-(2,2,2-trifluoroethoxy)-6,7-dihydro-5H-pyrrolo[3,4-d]pyrimidin-5-one]

Row | SMILES | activity (%) at 10 μM | pEC50
20 | CCC(F)(F)COc1nccc2c1C(=O)N(Cc1ccc(-c3cn(C)nc3C)cc1F)C2 [Example 7, 4-(2,2-difluorobutoxy)-2-(4-(1,3-dimethyl-1H-pyrazol-4-yl)-2-fluorobenzyl)-1,2-dihydro-3H-pyrrolo[3,4-c]pyridin-3-one] | 90% | 8.04
21 | CCC(F)(F)COc1ncnc2c1C(=O)N(Cc1ccc(-c3cn(C)nc3C)cc1)C2 [Example 8, 4-(2,2-difluorobutoxy)-6-(4-(1,3-dimethyl-1H-pyrazol-4-yl)benzyl)-6,7-dihydro-5H-pyrrolo[3,4-d]pyrimidin-5-one] | 109% | 7.64
22 | CCC(F)(F)COc1ncnc2c1C(=O)N(Cc1ccc(C(=O)NC)cc1)C2 [Example 10, 4-((4-(2,2-difluorobutoxy)-5-oxo-5,7-dihydro-6H-pyrrolo[3,4-d]pyrimidin-6-yl)methyl)-N-methylbenzamide] | 103% | 7.48
23 | CCC(F)(F)COc1nccc2c1C(=O)N(Cc1ccc(-c3cnnc(C)c3)cc1)C2 [Example 19, 4-(2,2-difluorobutoxy)-2-(4-(6-methylpyridazin-4-yl)benzyl)-1,2-dihydro-3H-pyrrolo[3,4-c]pyridin-3-one] | 98% | 6.62
24 | CCn1cc(-c2ccc(CN3Cc4ncnc(OCC(F)(F)CC)c4C3=O)s2)cn1 [Example 30, 4-(2,2-difluorobutoxy)-6-((5-(1-ethyl-1H-pyrazol-4-yl)-2-thienyl)methyl)-6,7-dihydro-5H-pyrrolo[3,4-d]pyrimidin-5-one] | 103% | 7.02
